# Laboratory results reported in ChEMBL document CHEMBL5726083, “Perfluorinated cyclopropyl fused 1,3-oxazin-2-amine compounds as beta-secretase inhibitors and methods of use” (2017).
# pIC50: −log10 of the molar value.
# Molecular target: Cathepsin D (Homo sapiens, UniProt P07339)
# Assay: In Vitro Enzymatic FRET Assay: Recombinant Cat D was expressed in CHO cells. The assay buffer for CathepsinD is 0.05 M citrate pH 3.5, 10% DMSO final, 5 mM CHAPS. The Cat D enzyme (9 nM) is pre-incubated for one hour with inhibitors, typically in about 1 uL of DMSO according to a serial dilution, is added thereto. The assays are effectively started by the addition of different FRET substrates (20 nM for Cat D) and the combination is incubated for one hour. The FRET assay is terminated with by addition of Tris buffer, which raises the pH to neutrality, and the fluorescence is determined. The FRET substrate is a peptide with commercially available fluorophore and quencher, on opposite sides of the BACE cleavage site. […] Proteolytic cleavage of the FRET substrate releases quenching of fluorescence (Cat D excitation 500 nm and emission 580 nm).
# Format: cell-based
# Cathepsin D, sequence (P07339 65-162 limits assumed): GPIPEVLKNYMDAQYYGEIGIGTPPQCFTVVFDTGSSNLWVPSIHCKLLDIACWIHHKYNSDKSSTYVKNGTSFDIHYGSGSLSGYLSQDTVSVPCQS
# Cathepsin D, sequence (P07339 169-412 limits assumed): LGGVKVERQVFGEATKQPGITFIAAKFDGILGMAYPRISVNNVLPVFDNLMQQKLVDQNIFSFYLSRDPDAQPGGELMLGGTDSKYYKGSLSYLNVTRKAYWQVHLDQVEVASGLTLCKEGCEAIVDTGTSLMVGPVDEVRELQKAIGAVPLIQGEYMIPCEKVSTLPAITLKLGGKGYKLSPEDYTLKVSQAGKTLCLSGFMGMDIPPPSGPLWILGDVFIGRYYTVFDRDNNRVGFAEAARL
row,Compound,pIC50
1,Cc1cc(OC(F)F)cnc1C(=O)Nc1ccc(Cl)c(C2(C(F)F)N=C(N)O[C@@H]3C[C@@H]32)c1 (some centres not stated),3.02
2,NC1=N[C@](CF)(c2cc(NC(=O)c3ccc(Cl)cn3)cc(F)c2F)[C@H]2CC2O1 (mixture of isomers),3.64
